Source: patent publication US7947854B2, “Bis-cationic compounds and use thereof” (The University of Sydney, priority 2003, dated 2011)
Marks after values point to notes of the source that are not given here.

Key:
[1] = test system: cytosolic phospholipase B (LPL/LPTA activities); test: Radiometric assay, cytosolic LPL/LPTA activities; type: biochemical, Cryptococcus neoformans H99; details: pH 4
Method: Fungal isolates and media. […] Isolate H99 was kindly supplied by Dr. Gary Cox (Duke University Medical Center, Durham, N.C., USA), and subcultured onto Sabouraud dextrose agar (SDA) at 30° C.
Cellular disruption to prepare membrane and cytosolic fractions. The cell pellet from the preparation of the supernatant, above, was also frozen at −70° C. After washing twice with imidazole buffer, it was disrupted in the presence of a protease inhibitor cocktail (P 8215 for fungal and yeast cells; 4-(2-aminoethyl)benzenesulfonyl fluoride hydrochloride, 100 mM, 1,10-phenanthroline, 500 mM, pepstatin A, 2.2 mM, E-64, 1.4 mM; Sigma) in a MiniBeadbeater-8 Cell Disrupter (MBB-8; Daintree Scientific, Tasmania, Australia) for three cycles of 1 min, alternating with a 1 min cooling period on ice. The homogenate was centrifuged at 14,000 g for 15 min to obtain the membrane (pellet) and the cytosolic (supernatant) fractions.
Secreted LPL and LPTA activities were measured simultaneously in a reaction mixture containing 1-[^14C]palmitoyl lyso-PC (25,000 dpm) and carrier lyso-PC (final concentration 200 μM) in assay buffer. The reaction time was […] with 1 μg of total protein and LPL activity was measured by the rate of loss of 1-[^14C]palmitoyl lyso-PC with release of radiolabelled fatty acids. LPTA activity was estimated from the rate of formation of radiolabelled PC.
All reactions were terminated by adding 0.5 mL of chloroform:methanol (2:1 v/v). The reaction products were extracted by the method as disclosed in Bligh, E. C. and W. J. Dyer. 1959 ‘A rapid method of total lipid extraction and purification.’ Can. J. Biochem. Physiol. 37:911-917, separated by TLC and quantified as previously described. In the case of PLC activity, the TLC plates were developed in petroleum ether (BP 60-80° C.): diethyl ether: acetic acid (90:15:1, v/v/v) instead of chloroform:methanol:water (65:25:4, v/v/v).
All experiments were carried out in duplicate or triplicate. The effects of pH on the various phospholipase activities were measured using 50 mM final concentration of imidazole-acetate buffer (pH range 3-5), MES buffer (pH range 6-8) and glycine buffer (pH 9-10). Controls for non-enzymic breakdown of substrates were included at all pH values. Cations, Triton X-100 and metal chelators were made up as stock solutions in water and diluted to the final concentration in the appropriate assay buffer.
Preparation of inhibitors and use in assays. The following compounds were tested (for structures, see FIG. 2): compound 1, 1,12-bis(tributylphosphonium)dodecane dibromide (Fluka AG, Buchs, Switzerland); compound 2, 1,10-bis(tributylammonium)-decane dibromide; compound 3, 1,12-bis(tributylammonium)do-decane dibromide (both synthesised in-house); compound 4, 1,10-bis(trimethylammonium)decane dibromide [“decamethonium”] (Sigma, St. Louis Mo., USA). All compounds were prepared as stock solutions of 700 μM in assay buffer containing 5 mM EDTA, which was then diluted serially with buffer to obtain solutions of 70, 7, 0.7 and 0.07 μM. In each assay, 45 μL of these solutions was used, and the final volume of 125 μL was made up of substrate, enzyme and buffer. The radiometric assay was carried out as above. Inhibition was calculated as the percent of substrates (DPPC or Lyso-PC) remaining in the case of PLB and LPL activities, or of DPPC produced, in the case of the LPTA activity. The amounts converted, or produced, in the inhibitor-free control were normalised to 100%, and the inhibition calculated against it. All assays were done in triplicate.
Under these conditions only PLB, LPL and LPTA activities (both secreted and cell-associated) were measured. Initially, compounds deemed to be potential inhibitors were assayed at 25 and 250 μM.

[2] = test system: two strains of C. neoformans and one strain of Candida albicans; test: Standardised serial dilution sensitivity test, results stated over all strains; type: cell-based
Method: Antifungal susceptibility testing. The antifingal activity of the compounds was measured by a standard microdilution method. […] The fungal strains tested included Cryptococcus neoformans H99, Cryptococcus neoformans ATCC 90112 and Candida albicans ATCC 10231. All tests were performed in duplicate.

| Structure (SMILES) | % Inhibition LPL, Cytosolic Enzyme ([1]; 2.5 μM) [%] | % Inhibition LPTA, Cytosolic Enzyme ([1]; 2.5 μM) [%] | % Inhibition LPL, Cytosolic Enzyme ([1]; 25 μM) [%] | % Inhibition LPTA, Cytosolic Enzyme ([1]; 25 μM) [%] | % Inhibition LPL, Cytosolic Enzyme ([1]; 250 μM) | % Inhibition LPTA, Cytosolic Enzyme ([1]; 250 μM) [%] | antifungal / fungicidal activity, in words [2] |
| --- | --- | --- | --- | --- | --- | --- | --- |
| CCCC[P+](CCCC)(CCCC)CCCCCCCCCCCC[P+](CCCC)(CCCC)CCCC [Compound 1, 1,12-bis(tributylphosphonium)dodecane dibromide] | 0 | 0 | 0 | 0 | 12.7* % | 0 | – |
| CCCC[N+](CCCC)(CCCC)CCCCCCCCCCCC[N+](CCCC)(CCCC)CCCC [Compound 3, 1,12-bis(tributylammonium)do-decane dibromide] | – | – | – | – | – | – | fungicidal activity |
